Measured values published in patent US20250313555A1, “2-SUBSTITUTED THIAZOLE AND BENZOTHIAZOLE COMPOSITIONS AND METHODS AS DUX4 INHIBITORS” (ALTAY THERAPEUTICS, INC., priority 2022, published 2025).

Key:
Format in all cases: cell-based
[1] = molecular target: T1, DUX4 (Homo sapiens, UniProt Q9UBX2); experiment: DUX4 EC50 luciferase reporter protocol in transfected HEK293 cells; conditions: 6 hr
T1 construct: expressed in transfected cells; host or cells: HEK293
Source text: EC50 Protocol This example provides a representative protocol for a single well of a 96-well plate. It can be scaled up as necessary for treatment of multiple wells. For negative controls, a well containing reporter DNA, Renilla DNA, and turbofect (without expression vector) were used. For positive controls, wells containing cells that were not treated with any inhibitor were used. They were transfected with the complete DNA lipid complex as set forth below. The DNA-lipid complex for one well of the 96-well plate is prepared by adding to a tube 100 ng of the transfection factor (TF) expression vector, 100 ng of TF reporter DNA, 10 ng of Renilla reporter DNA, […] Turbofect transfection reagent, and […] of the medium without any serum or penicillin/streptomycin. The combination was mixed by gentle flicking of the tube, and the mixture was pipetted into a well of a 96-well plate. The plate was then gently tapped to spread the combination evenly on the bottom of the well. The well was incubated for 30 min. HEK293 cells were grown until 80% confluent in DMEM supplemented with 10% fetal bovine serum, 1% penicillin streptomycin, and 1% amphotericin B. The adherent cells growing on a 10 cm plate were trypsinized with 1 mL of prewarmed trypsin. Once the cells detached from the plate, 10 mL of medium was added, and the cells were strained through a […] cell strainer. The cells were counted using a mixture of 10 mL cell suspension with 10 mL of trypan blue. Once the total number of cells are counted, a dilution of 150 k/mL was prepared. After incubation of the transfection complex was complete, […] of HEK293s (23.25 k total cells) were gently dispensed on top of the wells containing the 25 mL transfection complex, producing a total volume of about 180 mL. The mixture was then incubated for 24 h. To treat cells with each inhibitor, the inhibitors were prepared in the same growth medium. In a deep well block, the regular medium with serum was added to well 1 (135 mL) and to wells 2 through 10 (100 mL). To the first well was added 15 mL of 10 nM inhibitor. The final concentration of the drug in well 1 was 1 nM. The wells were pipeted up and down, and 50 mL was transferred from well 1 to well 2 (1/3 dilution). The well was mixed, and the seriation dilution was repeated with the remaining wells. Once the serial dilution was complete, using a multichannel pipet, 20 mL of each inhibitor were transferred to designated wells in a 96-well plate. […] Before the assay, a sufficient amount of 1× passive lysis buffer was prepared. The luciferase substrate buffer (Promega) was thawed completely and then mixed with the lyophilized luciferase substrate. The stop buffer (Promega) was also completely thawed. (1) Cell lysis: After treatment of the cells was complete, all the cell media is removed by flipping the 96-well plate over and tapping it dry on a dry paper towel. Immediately afterwards, the 1× passive lysis buffer (25 μL) was added. The plates were then placed on a rocker for 15 minutes at medium speed. (2)Measuring luciferase signal: The luciferase substrate solution for all wells was placed in a solution basin. The luciferase substrate solution was then added to every well (100 μL/well) using a multichannel pipette. The total luminescence was then read immediately using a plate reader. (3)Measuring Renilla signal: The “complete stop solution” was prepared in a solution basin by mixing the buffer with the 50× stop solution substrate (Promega) to make the final 1× solution. The complete stop solution was added to each well (50 μL/well) using a multichannel pipette. The total luminescence was then read immediately using a plate reader. Using a spreadsheet (e.g., Excel), the luciferase signal was divided by the renilla signal to get a relative luciferase unit.

[2] = Cell cytotoxicity 50 assay (CC50), MB200 cells, cell titer glo; conditions: human
Outline: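 Luminescence from CellTiter-Glo after 72 h of compound exposure at 37 °C gave the CC50 for MB200 cells. These were plated at 10 k cells/well in triplicate in supplemented F10 medium and treated with a serial dilution series prepared from a 10 mM stock.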

[3] = Cell cytotoxicity 50 assay (CC50), HEK cells; conditions: human
Outline: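 CC50 was fitted from total luminescence, measured 5 min after adding CellTiter-Glo reagent to HEK cells. The cells had been exposed for 72 h at 37 °C to medium serial dilutions prepared from a 10 mM drug solution.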

T1 sequence (Q9UBX2 whole entry): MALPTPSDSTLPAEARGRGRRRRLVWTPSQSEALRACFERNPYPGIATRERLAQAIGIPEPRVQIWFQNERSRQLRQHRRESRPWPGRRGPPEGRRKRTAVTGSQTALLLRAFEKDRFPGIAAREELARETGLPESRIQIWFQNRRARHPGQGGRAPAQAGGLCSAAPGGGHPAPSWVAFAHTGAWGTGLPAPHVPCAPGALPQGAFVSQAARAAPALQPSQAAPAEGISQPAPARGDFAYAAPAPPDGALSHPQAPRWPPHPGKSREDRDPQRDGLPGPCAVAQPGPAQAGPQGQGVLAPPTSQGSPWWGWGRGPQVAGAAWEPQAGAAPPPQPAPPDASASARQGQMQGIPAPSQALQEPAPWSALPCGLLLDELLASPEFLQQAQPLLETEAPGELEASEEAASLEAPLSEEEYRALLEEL

Row | EC50 [1] [µM] | SMILES | CC50 at 72 h [2] [µM] | CC50 at 72 h [3] [µM]
1 | > 10 | O=C(NCCCN1C(=O)CCC1=O)c1ccc(-c2nc3ccccc3s2)cc1 [Compound 7] | > 10 | > 10
2 | > 10 | O=C(NCCN1C(=O)CCC1=O)c1ccc(-c2nc3ccccc3s2)cc1 [Compound 22] | > 10 | > 10
3 | > 10 | CC(=O)NCCCC(=O)NC1CCC(c2nc3ccccc3s2)CC1 (centres unmarked) [Compound 28] | > 10 | > 10
4 | > 10 | O=C(CCCN1C(=O)CCC1=O)NC1CC(c2nc3ccccc3s2)C1 (centres unmarked) [Compound 89] | > 10 | > 10
5 | > 10 | O=C(CCCN1C(=O)CCC1=O)NC1CCC(c2nc3ccccc3s2)C1 (centres unmarked) [Compound 90] | > 10 | > 10
6 | > 10 | O=C(CCCN1C(=O)CCC1=O)NCCCc1nc2ccccc2s1 [Compound 91] | > 10 | > 10
7 | > 10 | O=C(CCCN1C(=O)CCC1=O)NC1CCCC1c1nc2ccccc2s1 (centres unmarked) [Compound 92] | > 10 | > 10
8 | > 10 | O=C(CCCN1C(=O)CCC1=O)N[C@H]1C[C@@H](c2nc3ccccc3s2)C1 [Compound 97] | > 10 | > 10
9 | > 10 | O=C(CCCN1C(=O)CCC1=O)Nc1nc2ccccc2s1 [Compound 108] |  | 
10 | > 10 | CC(=O)NCCCC(=O)N[C@H]1C[C@H](c2nc3ccccc3s2)C1 [Compound 112] | > 10 | > 10
11 | > 10 | CC(=O)NCCCC(=O)N[C@H]1C[C@@H](c2nc3ccccc3s2)C1 [Compound 113] | > 10 | > 10
12 | > 10 | CC(=O)NCCCC(=O)N[C@@H]1CC[C@H](c2nc3ccccc3s2)C1 [Compound 114] | > 10 | > 10
13 | > 10 | CC(=O)NCCCC(=O)N[C@H]1CC[C@H](c2nc3ccccc3s2)C1 [Compound 115] | > 10 | > 10
14 | > 10 | O=C(CCCN1CCCC1=O)NC1CCCC1c1nc2ccccc2s1 (centres unmarked) [Compound 117] | > 10 | > 10
15 | > 10 | O=C(CCCN1CCCC1=O)NCCCc1nc2ccccc2s1 [Compound 118] | > 10 | > 10
16 | > 10 | CC(=O)NC1CCC(C(=O)N[C@H]2CC[C@H](c3nc4ccccc4s3)CC2)C1 (some centres unmarked) [Compound 134] | > 10 | > 10
17 | > 10 | O=C(CCCCN1C(=O)CCC1=O)N[C@H]1CC[C@@H](c2nc3ccccc3s2)CC1 [Compound 151] | > 10 | > 10
18 | > 10 | O=C(CCCc1cccnc1)NC1CCC(c2nc3ccccc3s2)C1 (centres unmarked) [Compound 157] | > 10 | > 10
19 | > 10 | O=C(CCCN1C(=O)CCC1=O)NC1CCC(Cc2nc3ccccc3s2)C1 (centres unmarked) [Compound 158] | > 10 | > 10
20 | > 10 | O=C(CCCN1C(=O)CCC1=O)N[C@H]1CC[C@H](c2nc3ccccc3s2)C1 [Compound 161] |  | 
21 | > 10 | O=C(CCCN1C(=O)CCC1=O)N[C@@H]1CC[C@@H](c2nc3ccccc3s2)C1 [Compound 162] | > 10 | > 10
22 | > 10 | O=C(CCCc1cccnc1)N[C@H]1CC[C@@H](c2nc3ccccc3s2)CC1 [Compound 163] | > 10 | > 10
23 | > 10 | O=C(CCCc1cccnc1)N[C@H]1CC[C@H](c2nc3ccccc3s2)CC1 [Compound 164] | > 10 | > 10
24 | > 10 | CN(C(=O)CCCN1C(=O)CCC1=O)c1ccc(Cc2nc3ccccc3s2)cc1 [Compound 169] | > 10 | > 10
25 | > 10 | CC(=O)NCCCC(=O)N[C@H]1CC[C@@H](Cc2nc3ccccc3s2)CC1 [Compound 171] | > 10 | > 10
26 | > 10 | CC(=O)NCCCC(=O)N[C@H]1CC[C@H](Cc2nc3ccccc3s2)CC1 [Compound 172] | > 10 | > 10

The remaining lines, values behind:

Row | SMILES | EC50 [1] [µM] | CC50 at 72 h [2] [µM] | CC50 at 72 h [3] [µM]
27 | O=C(CCN1CCCC1=O)Nc1ccc(Cc2nc3ccccc3s2)cc1 [Compound 8] | > 10 | > 10 | > 10
28 | O=C(NCCc1cncnc1)c1ccc(-c2nc3ccccc3s2)cc1 [Compound 11] | > 10 | > 10 | > 10
29 | CC(=O)CCCCC(=O)Nc1ccc(-c2nccs2)cc1 [Compound 23] | > 10 | > 10 | > 10
30 | O=C(CCCc1cnco1)Nc1ccc(Cc2nc3ccccc3s2)cc1 [Compound 66] | > 10 | > 10 | > 10
31 | CC(=O)NCCCC(=O)Nc1ccc(-c2nccs2)cc1 [Compound 70] | > 10 | > 10 | > 10
32 | CC(=O)NCCCC(=O)Nc1cccc(-c2nc3ccccc3s2)c1 [Compound 71] | > 10 | > 10 | > 10
33 | CC(=O)NCCCC(=O)Nc1cc(C)cc(-c2nc3ccccc3s2)c1 [Compound 72] | > 10 | > 10 | > 10
34 | CC(=O)NCCCC(=O)Nc1cc(Cl)cc(-c2nc3ccccc3s2)c1 [Compound 101] | > 10 | > 10 | > 10
35 | CC(=O)NCCCC(=O)Nc1cc(Cl)cc(-c2nc3cc(F)ccc3s2)c1 [Compound 102] | > 10 | > 10 | > 10
36 | CC(=O)NCCCC(=O)NCCCc1nc2ccccc2s1 [Compound 106] | > 10 | > 10 | > 10
37 | CC(=O)NCCCC(=O)Nc1nc2ccccc2s1 [Compound 107] | > 10 | > 10 | > 10
38 | CC(C)(NC(=O)CCCN1CCCC1=O)c1ccc(-c2nc3ccccc3s2)cc1 [Compound 110] | > 10 | > 10 | > 10
39 | O=C(Cc1ccc(-c2nc3ccccc3s2)cc1)NCCN1CCCC1=O [Compound 119] | > 10 | > 10 | > 10
40 | C=C(C)NCCC(=C)Nc1cc(C)cc(Cc2nc3ccccc3s2)c1 [Compound 120] | > 10 | > 10 | > 10
41 | CC(=O)NCCCC(=O)Nc1nc(-c2ccccc2)cs1 [Compound 126] | > 10 | > 10 | > 10
42 | CC(=O)NC1CCC(C(=O)Nc2nc3ccccc3s2)C1 (centres unmarked) [Compound 131] | > 10 | > 10 | > 10
43 | CC(=O)NCCCc1nc(CCCC(=O)Nc2ccc(-c3nc4cc(F)ccc4s3)cc2)co1 [Compound 138] | > 10 | > 10 | 1 to 10
44 | CN(C(=O)CCCN1C(=O)CCC1=O)c1ccc(-c2nc3cc(F)ccc3s2)cc1 [Compound 144] | > 10 | > 10 | > 10
45 | CC(=O)NCCCNC(=O)c1ccc(-c2nc3ccccc3s2)o1 [Compound 149] | > 10 | > 10 | > 10
